The source of these data is PMC7763603, “Structural Basis for Design of New Purine-Based Inhibitors Targeting the Hydrophobic Binding Pocket of Hsp90” (International Journal of Molecular Sciences, 2020).

Where two headings read alike, the source gives them in different places.

The target of series [1] is T1, human recombinant N-terminal Hsp90α (Homo sapiens, UniProt P07900).
T1 construct: human recombinant N-terminal Hsp90α protein; purchased Reaction Biology Corporation (RBC, Malvern, PA, USA; assay service)
The experiment in a line: Fluorescence polarization competition assay with FITC-GM probe (Reaction Biology Corporation). The series is classed as binding. The following applies: for inhibition at 10 µM: read-out: Hsp90α % Inhibition @10 μM; for IC50: 10-dose, threefold serial dilution starting at 100 μM, mean of two experiments. (In general: In fluorescence polarisation assays a small probe gives low polarisation when free and higher when bound to something large.)

On the set-up of series [2]: method as in PMID 22938030. The note with it: in mice; cited from earlier work.
The next series has as its system SK-BR-3 cells. The experiment in a line: MTT antiproliferative assay, SK-BR-3. It is filed as cell-based, human. The following applies: for inhibition at 10 µM: read-out: SK-BR-3 % Inh. at 10 μM; for GI50: mean ± SEM of two experiments. An excerpt:
[…] […] Such modest cellular outcomes of those purine derivatives may be attributed to their lower lipophilic characters, which in turn restrict their cellular permeability into cancer cells. […] The 2-phenyloxazole-substituted purine 8 exerted reasonable antiproliferative activity, with GI values of 33.27% and 37.46% against MCF-7 and SK-BR-3 cells, respectively.
(§1) Cytotoxic activity of certain Hsp90 inhibitors against human cancer cell lines (MCF-7, SK-BR-3, and HCT116) was investigated using the MTT assay following the reported procedure. Cells were seeded into 96-well plates at a density of 3000 cells per well (MCF-7, HCT116, SK-BR-3 cells per each well). The compounds were added into cells and incubated for 72 h. Then, absorbance at 450 nm was measured using a Microplate Absorbance Reader (Bio-Rad, Hercules, CA, USA).
In general terms: Tetrazolium assays rely on reduction of a dye to a coloured formazan, in cell work by metabolically active cells.

In the next series the test system is HCT116 cells. The experiment in a line: MTT antiproliferative assay, HCT116. The series is classed as cell-based, human. The note with it: for inhibition at 10 µM: read-out: HCT116 % Inh. at 10 μM; for GI50: mean ± SEM of two experiments. On the procedure:
The growth inhibitory effects of the test compounds, at 10 µM dose, were determined after 72 h incubation using the 3-(4,5-dimethylthiazol-2-yl)-2,5-diphenyl tetrazolium bromide (MTT) assay.
as §1

Another series relates to MCF-7 cells. The experiment in a line: MTT antiproliferative assay, MCF-7. It is filed as cell-based, human. The note with it: for inhibition at 10 µM / GI50: Homo sapiens, MCF7, 72 h; for inhibition at 10 µM: read-out: MCF-7 % Inh. at 10 μM; for GI50: mean ± SEM of two experiments. As to the method: The growth inhibitory effects of the test compounds, at 10 µM dose, were determined after 72 h incubation using the 3-(4,5-dimethylthiazol-2-yl)-2,5-diphenyl tetrazolium bromide (MTT) assay. […] Such modest cellular outcomes of those purine derivatives may be attributed to their lower lipophilic characters, which in turn restrict their cellular permeability into cancer cells. […] The 2-phenyloxazole-substituted purine 8 exerted reasonable antiproliferative activity, with GI values of 33.27% and 37.46% against MCF-7 and SK-BR-3 cells, respectively.
as §1

Series [3] addresses T2, mHsp90ND (N-terminal domain of mouse Hsp90α) (Mus musculus, UniProt P07901).
T2 construct: Hsp90α (residues 9–225 Swiss Prot entry: P07901); His6 (N); made in house; host or cells: Escherichia coli BL21 (DE3) codon plus RIL
The experiment in a line: Isothermal titration calorimetry (ITC). The series is classed as binding. As to the method: The PCR product was cloned into plasmid pET28a, which encodes a purification tag consisting of the amino acids His6 at the N-terminal of the protein. mHsp90ND was expressed in Escherichia coli (E. coli) BL21 (DE3) codon plus RIL (Stratagene) cell. The cells were lysed by sonication in 50 mM Tris-HCl (pH 7.4), 100 mM NaCl, 2 mM 2-mercaptoethanol, and 0.2 mM phenylmethylsulfonyl fluoride (PMSF). After centrifugation, mHsp90ND in the supernatant was purified by Ni^2+-chelated Hi-trap chelating column, and HiLoad 26/60 200pg column (GE healthcare, Chicago, IL, USA). After the final step, mHsp90ND was stored in 20 mM Tris-HCl (pH 7.4), 100 mM NaCl, and 1 mM dithiothreitol (DTT).
Stock solutions of those compounds were prepared in dimethyl sulfoxide (DMSO) at 100 mM concentration and stored at −20 °C. The ITC buffer contained 20 mM Tris (pH 8.0), 100 mM NaCl, and up to 2% DMSO. […] The experimental raw data were corrected for dilution by subtracting the values for buffer alone and then fit by a one-site binding model. Titration data were fit using a nonlinear least squares curve-fitting algorithm with three floating variables: stoichiometry, binding constant (KD), and change of enthalpy of interaction.
In general terms: ITC needs no label: the signal is the heat of the interaction.

Where [4] appears, read: single dose 10 μM, duplicate, FITC-GM probe.
Where [5] appears, read: Homo sapiens, SK-BR-3, 72 h, 10 μM.
[6] abbreviates: Homo sapiens, HCT-116, 72 h, 10 μM.
Setting [7] is: ITC, 25 °C, one-site binding model.
Setting [8] is: ITC, 25 °C, one-site binding model, read-out: KD.

For `CCOC(=O)c1cc(Cn2cnc3c(Cl)nc(N)nc32)no1` [Compound 7, Ethyl 3-((2-amino-6-chloro-9H-purin-9-yl)methyl)isoxazole-5-carboxylate], the inhibition at 10 µM in series [1] (setting [4]) came to 14.8%.

In the case of `Nc1nc(Cl)c2c(ncn2Cc2cnc(-c3ccccc3)o2)n1` [Compound 9, 6-Chloro-7-((2-phenyloxazol-5-yl)methyl)-7H-purin-2-amine], the “Hsp90α % Inhibition @10 μM” value in series [1] (setting [4]) is listed as “fluorescence background that interfered with the assay”.

As to `COc1c(C)cnc(Cn2cc(C#CCC(C)(C)O)c3c(Cl)nc(N)nc32)c1C` [EC144], in series [2], the “efficacy relative to BIIB021” value is given as “approximately 20 fold”.

By GI50 is commonly meant the concentration giving 50% growth inhibition. Turning to `COc1c(C)cnc(Cn2cnc3c(Cl)nc(N)nc32)c1C` [BIIB021, reference compound], the inhibition at 10 µM was found to be 71.9% in the series with SK-BR-3 cells (setting [5]), 86.2% in the series with HCT116 cells (setting [6]) and 84.8% in the series on MCF-7 cells (10 μM). Moreover, the 50% growth inhibitory concentration (GI50) in the series with SK-BR-3 cells (Homo sapiens, SK-BR-3, 72 h) was 347 ± 23 nM; in the series with MCF-7 cells, 392 ± 30 nM.

A word on the Kd: it is a measure of binding affinity in units of concentration. What is called melting point is the temperature of the solid-liquid transition. Compound `CC(C)(C)C1=NOC(Cn2cnc3c(Cl)nc(N)nc32)C1` (centres unmarked) [Compound 4b, 9-((3-(tert-Butyl)-4,5-dihydroisoxazol-5-yl)methyl)-6-chloro-9H-purin-2-amine] came in with a melting point of 198.3 to 200.8 °C. Moreover, the inhibition at 10 µM with HCT116 cells (setting [6]) is < 30%. In series [3] (ITC, 25 °C), the “∆H” value was -19.8 ± 3.29 kcal/mol and the “∆S” value is −44.5 cal/mol/deg. In addition, the “N (binding stoichiometry)” value in series [3] (setting [7]) is given as 1.17. Further, the Kd in series [3] (setting [8]) was 15600 nM. In addition, the inhibition at 10 µM in series [1] (setting [4]) is 35.4%.

For `C=CCNC1=C2C[C@@H](C)C[C@H](OC)[C@H](O)[C@@H](C)/C=C(\C)[C@H](OC(N)=O)[C@@H](OC)/C=C\C=C(/C)C(=O)NC(=CC1=O)C2=O` [Compound 17-AAG, Allyl-aminogeldanamycin, reference compound], the inhibition at 10 µM is 74.4% in the series with SK-BR-3 cells (setting [5]), 88.9% with HCT116 cells (setting [6]), 100% in series [1] and 79.7% with MCF-7 cells (10 μM). For the same compound, the GI50 in the series on SK-BR-3 cells (Homo sapiens, SK-BR-3, 72 h) came to 140 ± 12 nM; in the series on HCT116 cells (Homo sapiens, HCT-116, 72 h), 205 ± 9 nM; in the series with MCF-7 cells, 498 ± 60 nM. In series [3], this compound registered a Kd of 2900 nM. For the same compound, in series [3], the “N (binding stoichiometry)” value was found to be 0.98. In series [3], the “∆H” value is -8.6 ± 0.4 kcal/mol. Also, the “∆S” value in series [3] is −3.66 cal/mol/deg.

With `Cc1ccc(C#CCn2cnc3c(Cl)nc(N)nc32)cc1` [Compound 10, 6-Chloro-9-(3-(p-tolyl)prop-2-yn-1-yl)-9H-purin-2-amine], the inhibition at 10 µM in series [1] (setting [4]) amounted to 22.2%.

The term IC50 denotes the concentration that gives 50% inhibition. `CC(C)(C)c1cc(Cn2cnc3c(Cl)nc(N)nc32)on1` [Compound 6b, 9-((3-(tert-Butyl)isoxazol-5-yl)methyl)-6-chloro-9H-purin-2-amine]: the inhibition at 10 µM turned out to be 45.8% in the series with SK-BR-3 cells (setting [5]), 26% with HCT116 cells (setting [6]), 95.8% in series [1] (setting [4]) and 15.7% in the series with MCF-7 cells (10 μM). For the same compound, the GI50 with SK-BR-3 cells (Homo sapiens, SK-BR-3, 72 h) turned out to be 26000 ± 1360 nM. Further, in series [3] (ITC, 25 °C), the “∆H” value is -14.5 ± 0.4 kcal/mol. The “∆S” value in series [3] (ITC, 25 °C) is −19.4 cal/mol/deg. In addition, the “N (binding stoichiometry)” value in series [3] (setting [7]) came to 0.97. For the same compound, the dissociation constant (Kd) in series [3] (setting [8]) is 440 nM. For the same compound, the “potency relative to isoxazoline congener 4b (from % inhibition)” value in series [1] (10 μM, FITC-GM probe) came to 2.7 fold. Further, the IC50 in series [1] (FITC-GM probe) turned out to be 1760 nM.

Turning to `Cc1ccc(-c2[nH]nnc2Cn2cnc3nc(N)nc(Cl)c32)cc1` [Compound 13, 6-Chloro-7-((5-(p-tolyl)-1H-1,2,3-triazol-4-yl)methyl)-7H-purin-2-amine], in series [1] (setting [4]), the “Hsp90α % Inhibition @10 μM” value is on record as “fluorescence background that interfered with the assay”.

Regarding “6-Chloro-9-((2-phenyloxazol-5-yl)methyl)-7H-purin-2-amine [Compound 8]”, the “SK-BR-3 % Inh. at 10 μM” value with SK-BR-3 cells (10 μM, 72 h) was 37.46%. For the same compound, the 50% growth inhibitory concentration (GI50) in the series on SK-BR-3 cells (72 h) is 22500 ± 700 nM; in the series with HCT116 cells (72 h) it was 23400 ± 2940 nM. Besides, the “HCT116 % Inh. at 10 μM” value with HCT116 cells (10 μM, 72 h) is reported as 19.19%. Further, in series [1] (setting [4]), the “Hsp90α % Inhibition @10 μM” value came to 48.7%. For the same compound, in the series on MCF-7 cells (10 μM, 72 h), the “MCF-7 % Inh. at 10 μM” value is on record as 33.27%.

As to `CC(C)c1cc(Cn2cnc3c(Cl)nc(N)nc32)on1` [Compound 6c, 6-Chloro-9-((3-isopropylisoxazol-5-yl)methyl)-9H-purin-2-amine], the inhibition at 10 µM with SK-BR-3 cells (setting [5]) was 33.2%; in the series with HCT116 cells (setting [6]) it was -0.6%; in series [1] (setting [4]), 77.3%; with MCF-7 cells (10 μM), 11.9%. Also, in series [3] (ITC, 25 °C), the “∆H” value was -15.8 ± 0.5 kcal/mol. Further, the “∆S” value in series [3] (ITC, 25 °C) is listed as −24.8 cal/mol/deg. Besides, the “N (binding stoichiometry)” value in series [3] (setting [7]) came out at 1.00. Moreover, in series [3] (setting [8]), the Kd stood at 680 nM. The IC50 in series [1] (FITC-GM probe) was 203 nM.

Consider `Cc1ccc(-c2[nH]nnc2Cn2cnc3c(Cl)nc(N)nc32)cc1` [Compound 12, 6-Chloro-9-((5-(p-tolyl)-1H-1,2,3-triazol-4-yl)methyl)-9H-purin-2-amine], for which the “Hsp90α % Inhibition @10 μM” value in series [1] (setting [4]) is “fluorescence background that interfered with the assay”.

For the compound `Cc1ccc(C#CCn2cnc3nc(N)nc(Cl)c32)cc1` [Compound 11, 6-Chloro-7-(3-(p-tolyl)prop-2-yn-1-yl)-7H-purin-2-amine], the “Hsp90α % Inhibition @10 μM” value in series [1] (setting [4]) is reported as “fluorescence background that interfered with the assay”.
